We go through 2 molecules from publication PMC10952572, “Improved PIEZO1 agonism through 4‐benzoic acid modification of Yoda1” (British Journal of Pharmacology, 2023).

Data set [1] is described as follows: Plasma protein binding by rapid equilibrium dialysis. It is filed as in vitro ADME. The settings on record: RED. Here is the method:
Mouse plasma protein binding was measured by rapid equilibrium dialysis (RED) performed by Malvern Panalytical (UK). Briefly, mouse plasma was warmed to 37°C for 10 min, and test compound stock solution was added to achieve a 5 μM solution; 500 μl of dialysis buffer was added to one side of the chamber of the device insert (Piercenet, Dialysis membrane MWCO 8000) housed within a heated Teflon block, and the incubation was initiated by the addition of 300 μl of the test compound protein solution to the opposite chamber. Equilibrium was reached by shaking the device on an orbital mixer at 37°C for 4 h; 50 μl aliquots from the buffer and the plasma chambers were transferred into separate wells of a deep‐well plate; 50 μl of plasma was added to the buffer samples, and 50 μl of buffer was added to the plasma samples; 300 μl of ice‐cold acetonitrile containing internal standard was added to precipitate the protein. Samples were then centrifuged (2700 × g at 4°C for 20 min) to pellet the protein, and the supernatant was analysed by LC–MS/MS to quantify the % input compound unbound to plasma protein with reference to a standard curve.

The next data set deals with T1, hPIEZO1 (Homo sapiens, UniProt Q92508).
T1 construct: expressed in transfected cells
The data set is described as follows: Pre-treatment with analogue before Yoda1 stimulus, Ca2+ assay in hPIEZO1-TREx cells. It is filed as cell-based. The conditions noted are these: hPIEZO1-TREx, 10 μM compound 30 min pretreatment before 2 μM Yoda1. Here is the method:
HEK 293‐TREx cells and their stably transfected derivatives or transiently transfected HEK 293 or HeLa cells were seeded at a density of 7.5 × 10^4 cells per well into poly‐D‐lysine‐coated 96‐well plates. The plates were either commercially pre‐coated with poly‐D‐lysine (Greiner Bio‐One #655946) or (Greiner Bio‐One #655090) were coated in‐house with 35 μl of a 10 μg·ml^−1 poly‐D‐lysine (Bio‐Techne, Cultrex # 3439‐100‐01) in sterile deionised water per well for at least 24 h and rinsed three times with 100 μl per well sterile D‐PBS before addition of cells. HUVECs were seeded into tissue culture‐treated 96‐well plates (Greiner Bio‐One #655090) at a density of either 2.5 × 10^4 cells 24 h before experimentation or 1.25 × 10^4 cells 48 h before experimentation. Cells were incubated with 2 μM Fura‐2‐AM (Molecular Probes™) in the presence of 0.01% (wt./vol.) pluronic F127 (Sigma‐Aldrich #P2443) in standard bath solution (SBS) for 1 h at 37°C. Cells were washed with SBS for 30 min at room temperature. Alternatively, if inhibitors were being tested, these were added at this time, immediately following a wash in SBS. (−)‐Englerin A (Akbulut et al., [2015]) was used in SBS containing 0.01% pluronic acid as a dispersing agent to minimise aggregation of compound. Unless otherwise stated, the final concentration of DMSO was 0.2% (vol./vol). Working 2000× stock solutions of test compounds were freshly made in DMSO and diluted 1000‐fold in SBS during the 30 min SBS wash/inhibitor pre‐incubation period to obtain 2× solutions for injection. When testing the highest concentration of Yoda1, KC159 and KC289 (30 μM), the final DMSO concentration was 0.6% (vol./vol.). Measurements were made at room temperature on a 96‐well fluorescence plate reader (FlexStation 3, Molecular Devices, Sunnyvale, CA, USA) controlled by SoftMax Pro software v7.0.3. Recipient wells containing 80 μl SBS/0.2% (vol./vol.) DMSO vehicle or inhibitor compound received 80 μl 2× compound at an injection rate of 1 μl·s^−1, and the pipette introduced liquids from a height setting of 70 μl. No trituration was performed. For recordings using Fura‐2, the change in intracellular Ca was indicated as the ratio of Fura‐2 emission (510 nm) intensities at 340 and 380 nm excitation. Photomultipliers were set to medium sensitivity. SBS contained 130 mM NaCl, 5 mM KCl, 8 mM D‐glucose, 10 mM HEPES, 1.2 mM MgCl2 and 1.5 mM CaCl2, and the pH was adjusted to 7.4 with NaOH. The solution was filtered through a 0.2 μm bottle‐top filter prior to use and handled aseptically thereafter.
In view of the effect of Dooku1 described above, we tested if there are inhibitory actions of the new Yoda1 analogues by pre‐treating cells at 10 μM for 30 min prior to adding 2 μM Yoda1 (Figures 9 and S9, SI 1). All except KC157 and KC161 inhibited the action of Yoda1 on hPIEZO1 channels (Figures 9a and S9, SI 1). […] KC159 and KC289 were agonists, and so they may inhibit the effect of Yoda1 simply by pre‐activating the channels. KC158, KC161 and KC162 are also agonists of mPIEZO1 channels (Figure 3). […] Only the 2‐benzoic acid analogue (KC157) lacks agonist or antagonist properties.

Data set [2] concerns the target T2, PIEZO1 channels endogenously expressed in HUVECs (Homo sapiens, UniProt Q92508).
T2 construct: HUVECs, which are a physiologically relevant cell type that endogenously expresses PIEZO1 channels; host or cells: HUVEC
The data set can be described thus: Intracellular Ca2+ measurement in HUVECs. It is filed as cell-based. The conditions noted are these: peak ΔCa2+i, Hill fit, read-out: EC50 (estimated concentration for 50% effect). Here is the method: Human umbilical vein endothelial cells (HUVECs) purchased from PromoCell (#C‐12203) were maintained in endothelial cell […] medium 2 (ECGM‐2, PromoCell #C‐22111) supplemented with 500 pg·ml^−1 recombinant human vascular endothelial growth factor 165, 10 ng·ml^−1 recombinant human basic fibroblast growth factor, 200 ng·ml^−1 hydrocortisone, 22.5 μg·ml^−1 heparin and 2% (vol./vol.) fetal calf serum. […] After washing the cell monolayer with D‐PBS (Sigma #D8537), 2 ml pre‐warmed 0.05% trypsin– EDTA (Gibco #25300054) was added to 75 cm^2 flasks until the cells had detached (between 2 and 5 min at 37°C). Complete ECGM‐2 (8 ml) was added to inhibit the trypsin, the cells were counted and their density was adjusted before seeding into fresh vessels for maintenance cultivation or experimental purposes. The medium for maintenance of cultures was completely refreshed every 48 h. HUVECs were used for experiments after a minimum of three and a maximum of five passages. […]
HEK 293‐TREx cells and their stably transfected derivatives or transiently transfected HEK 293 or HeLa cells were seeded at a density of 7.5 × 10^4 cells per well into poly‐D‐lysine‐coated 96‐well plates. […] Measurements were made at room temperature on a 96‐well fluorescence plate reader (FlexStation 3, Molecular Devices, Sunnyvale, CA, USA) controlled by SoftMax Pro software v7.0.3. […]

A short description of data set [3]: Kinetic and thermodynamic solubility assays (Malvern Panalytical). It is filed as physicochemical. The settings on record: phosphate buffer, physiological pH 7.4; compared with Yoda1. Here is the method: Kinetic and thermodynamic solubility assays were also performed by Malvern Panalytical (UK). Briefly, 1000 μl of 0.1 M phosphate buffer (pH 7.4) received either 25 μl of a 10 mM DMSO stock of test compound (for kinetic solubility assays) or 1 mg of test compound (for thermodynamic solubility assays). The mixtures were shaken on an orbital mixer to reach equilibrium for 1 or 24 h, respectively. The equilibrated solution was centrifuged, and the supernatant was removed to a fresh vial and then re‐centrifuged. High‐ and low‐dilution samples were prepared from the secondary supernatant and quantified by LC–MS/MS against a standard curve.

T2 sequence (Q92508 whole entry): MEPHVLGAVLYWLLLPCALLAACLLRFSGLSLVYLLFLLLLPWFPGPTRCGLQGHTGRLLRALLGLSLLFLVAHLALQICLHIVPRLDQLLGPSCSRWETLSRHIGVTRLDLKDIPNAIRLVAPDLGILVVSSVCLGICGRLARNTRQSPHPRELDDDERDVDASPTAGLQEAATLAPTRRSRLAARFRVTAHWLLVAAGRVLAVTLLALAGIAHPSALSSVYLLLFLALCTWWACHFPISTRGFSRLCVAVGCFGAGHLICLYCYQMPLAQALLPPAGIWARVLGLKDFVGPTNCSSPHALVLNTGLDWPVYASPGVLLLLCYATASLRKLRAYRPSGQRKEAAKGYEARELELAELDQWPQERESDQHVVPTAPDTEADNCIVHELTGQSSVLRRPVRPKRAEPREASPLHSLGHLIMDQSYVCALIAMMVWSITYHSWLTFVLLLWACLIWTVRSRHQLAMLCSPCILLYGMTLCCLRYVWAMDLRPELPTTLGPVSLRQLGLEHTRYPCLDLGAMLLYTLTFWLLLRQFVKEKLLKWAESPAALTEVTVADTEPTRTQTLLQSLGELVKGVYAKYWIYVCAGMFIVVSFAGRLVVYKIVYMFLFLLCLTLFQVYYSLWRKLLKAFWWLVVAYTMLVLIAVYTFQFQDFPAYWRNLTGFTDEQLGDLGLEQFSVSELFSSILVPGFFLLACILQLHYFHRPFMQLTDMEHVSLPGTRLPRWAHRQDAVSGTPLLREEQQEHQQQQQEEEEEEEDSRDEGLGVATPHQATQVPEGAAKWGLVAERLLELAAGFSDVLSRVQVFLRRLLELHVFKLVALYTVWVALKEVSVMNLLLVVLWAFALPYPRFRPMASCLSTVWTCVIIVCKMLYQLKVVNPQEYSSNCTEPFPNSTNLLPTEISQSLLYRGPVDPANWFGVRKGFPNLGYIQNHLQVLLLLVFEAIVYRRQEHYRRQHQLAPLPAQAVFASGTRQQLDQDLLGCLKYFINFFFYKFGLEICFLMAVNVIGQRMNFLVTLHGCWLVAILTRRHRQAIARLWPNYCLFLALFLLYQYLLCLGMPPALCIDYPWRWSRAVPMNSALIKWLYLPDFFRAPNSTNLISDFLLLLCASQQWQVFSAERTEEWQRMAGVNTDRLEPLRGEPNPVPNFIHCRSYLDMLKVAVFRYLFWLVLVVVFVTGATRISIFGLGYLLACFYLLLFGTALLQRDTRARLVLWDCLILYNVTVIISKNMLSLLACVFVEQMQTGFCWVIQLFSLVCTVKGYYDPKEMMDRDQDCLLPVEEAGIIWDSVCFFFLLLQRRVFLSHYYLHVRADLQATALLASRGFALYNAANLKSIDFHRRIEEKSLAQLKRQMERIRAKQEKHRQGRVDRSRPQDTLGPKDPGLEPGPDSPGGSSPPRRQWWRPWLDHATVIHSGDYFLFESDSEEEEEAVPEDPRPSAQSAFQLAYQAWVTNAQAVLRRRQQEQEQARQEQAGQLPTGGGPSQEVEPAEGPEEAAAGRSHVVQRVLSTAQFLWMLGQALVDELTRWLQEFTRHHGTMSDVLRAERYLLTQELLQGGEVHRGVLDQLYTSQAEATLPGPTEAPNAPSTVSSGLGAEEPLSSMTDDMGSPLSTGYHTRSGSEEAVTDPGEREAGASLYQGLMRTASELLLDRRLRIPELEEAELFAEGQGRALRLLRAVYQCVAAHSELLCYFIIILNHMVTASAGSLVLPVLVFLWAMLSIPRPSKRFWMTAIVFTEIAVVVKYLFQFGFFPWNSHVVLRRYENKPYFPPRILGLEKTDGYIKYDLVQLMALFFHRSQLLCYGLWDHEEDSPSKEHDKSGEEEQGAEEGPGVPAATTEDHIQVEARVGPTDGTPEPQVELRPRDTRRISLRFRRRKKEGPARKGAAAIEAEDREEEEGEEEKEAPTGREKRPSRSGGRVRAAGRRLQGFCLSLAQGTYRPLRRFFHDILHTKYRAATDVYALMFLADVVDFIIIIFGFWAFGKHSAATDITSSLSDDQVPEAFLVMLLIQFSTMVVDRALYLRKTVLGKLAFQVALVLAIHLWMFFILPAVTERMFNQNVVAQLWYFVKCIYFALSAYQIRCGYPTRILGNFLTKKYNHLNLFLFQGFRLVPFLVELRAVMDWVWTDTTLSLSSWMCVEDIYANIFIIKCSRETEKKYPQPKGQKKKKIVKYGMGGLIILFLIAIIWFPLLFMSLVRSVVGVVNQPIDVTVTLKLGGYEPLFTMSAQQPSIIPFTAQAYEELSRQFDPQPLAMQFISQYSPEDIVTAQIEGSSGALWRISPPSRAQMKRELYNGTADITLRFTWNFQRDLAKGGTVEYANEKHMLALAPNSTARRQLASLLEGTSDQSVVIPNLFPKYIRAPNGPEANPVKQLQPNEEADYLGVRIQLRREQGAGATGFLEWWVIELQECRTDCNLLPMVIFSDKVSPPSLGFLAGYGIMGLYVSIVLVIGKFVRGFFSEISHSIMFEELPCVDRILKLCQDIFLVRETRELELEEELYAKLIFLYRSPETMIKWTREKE
T1 sequence (Q92508 whole entry): as above

Regarding `O=C(O)c1ccc(-c2nnc(SCc3c(Cl)cccc3Cl)s2)cc1` [KC159], in data set [1] (mouse, plasma, read-out: Fraction bound to plasma proteins (converted)), the fraction unbound at 4 h, 5 μM was 0.006. Besides, the “2 μM Yoda1-evoked peak ΔCa2+i (ΔF340/380), median fold difference compared to DMSO pretreatment” value at hPIEZO1 is listed as −1.7 fold. Besides, in data set [2], the EC50 was 2280 nM. For the same molecule, in data set [3], the Kinetic solubility entry was “better solubility than Yoda1” and the Thermodynamic solubility result is on record as “better solubility than Yoda1”.

`O=C([O-])c1ccc(-c2nnc(SCc3c(Cl)cccc3Cl)s2)cc1.[K+]` [KC289]: in data set [1] (mouse plasma, 5 μM), the “Fraction bound to plasma proteins” value is listed as 99.35%. Besides, the “2 μM Yoda1-evoked peak ΔCa2+i (ΔF340/380), median fold difference compared to DMSO pretreatment” value at hPIEZO1 was −2.5 fold. The EC50 in data set [2] is 1140 nM. Moreover, in data set [3], the Kinetic solubility entry was “better solubility than Yoda1” and the Thermodynamic solubility entry is “better solubility than Yoda1”.
